Results from publication PMC9144902, “Metal(II) Complexes of the Fluoroquinolone Fleroxacin: Synthesis, Characterization and Biological Profile” (Pharmaceutics, 2022).

Key:
[1] = test system: Bacillus subtilis ATCC 6633; experiment: Antimicrobial activity, MIC determination; format: cell-based; details: B. subtilis; 24-h incubation, 37°C
Outline: (§1)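 Broth microdilution MIC in Mueller–Hinton broth, inoculum 0.5 McFarland, compounds added from DMSO working solutions at 2:98. After 24 h (37°C; X. campestris at 28°C), MIC is the lowest concentration inhibiting visible growth, by OD600 turbidity, in at least two of triplicate cultures.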

[2] = test system: Staphylococcus aureus ATCC 6538; experiment: Antimicrobial activity, MIC determination; format: cell-based; details: S. aureus; 24-h incubation, 37°C
[3] = test system: Xanthomonas campestris ATCC 1395; experiment: Antimicrobial activity, MIC determination; format: cell-based; details: X. campestris; 24-h incubation, 28°C
Outline: as §1

[4] = biological target: T1, bovine serum albumin (BSA) (Bos taurus, UniProt P02769); experiment: Albumin binding by tryptophan fluorescence emission quenching; details: for K(BSA), BSA-binding constant / kq(BSA), BSA-quenching constant: BSA 3 μM; for K(BSA), BSA-binding constant: buffer pH 7.0, Scatchard equation; for kq(BSA), BSA-quenching constant: buffer pH 7.0, λexc 295 nm, Stern–Volmer, τ0 = 10^–8 s; for BSA fluorescence, % of the initial fluorescence intensity (I/Io): λem,max = 342 nm, final value of titration (Figure S11)
T1 construct: purchased
T1 sequence (P02769 25-607): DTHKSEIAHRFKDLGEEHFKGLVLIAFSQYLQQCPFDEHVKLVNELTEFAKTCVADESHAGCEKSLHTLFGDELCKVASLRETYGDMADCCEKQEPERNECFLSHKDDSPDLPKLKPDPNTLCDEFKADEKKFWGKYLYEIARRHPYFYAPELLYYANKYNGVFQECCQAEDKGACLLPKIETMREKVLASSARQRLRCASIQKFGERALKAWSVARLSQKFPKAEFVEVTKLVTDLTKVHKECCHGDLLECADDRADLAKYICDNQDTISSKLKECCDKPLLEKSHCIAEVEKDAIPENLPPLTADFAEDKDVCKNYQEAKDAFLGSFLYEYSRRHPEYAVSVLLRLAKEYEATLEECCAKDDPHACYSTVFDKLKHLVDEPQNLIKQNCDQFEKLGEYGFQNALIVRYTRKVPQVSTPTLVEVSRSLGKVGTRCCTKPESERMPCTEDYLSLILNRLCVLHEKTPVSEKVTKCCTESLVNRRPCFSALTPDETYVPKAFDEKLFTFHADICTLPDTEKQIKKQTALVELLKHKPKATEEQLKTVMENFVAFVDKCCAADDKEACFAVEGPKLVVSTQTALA
Outline: (§2)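 Compound binding to serum albumin monitored by quenching of albumin tryptophan fluorescence emission. Quenching constants (kq) derived from Stern–Volmer equation; binding constants (K) from Scatchard equation.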

[5] = biological target: T2, human serum albumin (HSA) (Homo sapiens, UniProt P02768); experiment: as above; details: for K(HSA), HSA-binding constant / kq(HSA), HSA-quenching constant: HSA 3 μM; for K(HSA), HSA-binding constant: buffer pH 7.0, Scatchard equation; for kq(HSA), HSA-quenching constant: buffer pH 7.0, λexc 295 nm, Stern–Volmer, τ0 = 10^–8 s; for HSA fluorescence, % of the initial fluorescence intensity (I/Io): λem,max = 351 nm, final value of titration (Figure S10)
T2 construct: purchased
T2 sequence (P02768 25-609): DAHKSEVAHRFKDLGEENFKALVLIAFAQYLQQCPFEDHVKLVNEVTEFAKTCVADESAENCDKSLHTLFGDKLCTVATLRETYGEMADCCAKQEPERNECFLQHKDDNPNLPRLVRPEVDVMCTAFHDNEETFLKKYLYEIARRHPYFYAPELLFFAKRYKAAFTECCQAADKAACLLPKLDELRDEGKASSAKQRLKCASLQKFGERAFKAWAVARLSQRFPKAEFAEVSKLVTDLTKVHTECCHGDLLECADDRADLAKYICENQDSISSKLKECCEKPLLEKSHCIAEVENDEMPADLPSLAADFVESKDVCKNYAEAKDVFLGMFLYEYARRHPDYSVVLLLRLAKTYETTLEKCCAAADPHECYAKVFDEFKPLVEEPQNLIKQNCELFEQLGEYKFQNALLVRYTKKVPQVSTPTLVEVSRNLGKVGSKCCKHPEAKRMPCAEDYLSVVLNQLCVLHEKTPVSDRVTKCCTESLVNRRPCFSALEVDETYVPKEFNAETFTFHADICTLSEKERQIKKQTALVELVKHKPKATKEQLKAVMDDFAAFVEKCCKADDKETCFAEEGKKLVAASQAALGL
Outline: as §2

SMILES | MIC [1] | MIC (values in parentheses) [1] | MIC [2] | MIC (values in parentheses) [2] | MIC [3] | MIC (values in parentheses) [3] | K(BSA), BSA-binding constant [4] | kq(BSA), BSA-quenching constant [4] | BSA fluorescence, % of the initial fluorescence intensity (I/Io) [4] | K(HSA), HSA-binding constant [5] | kq(HSA), HSA-quenching constant [5] | HSA fluorescence, % of the initial fluorescence intensity (I/Io) [5]
CN1CCN(c2c(F)cc3c(=O)c(C(=O)[O-])cn(CCF)c3c2F)CC1.CN1CCN(c2c(F)cc3c(=O)c(C(=O)[O-])cn(CCF)c3c2F)CC1.[Mn+2].c1ccc(-c2ccccn2)nc1 [complex 9, [Mn(flrx)2(bipy)]] | 8 µg/mL | 8.4 µM | 8 µg/mL | 8.4 µM | 16 µg/mL | 16.9 µM | 1.39(±0.05) × 10^5 M^−1 | 2.45(±0.09) × 10^13 M^−1s^−1 | 18.0% | 6.36(±0.31) × 10^4 M^−1 | 8.09(±0.17) × 10^12 M^−1s^−1 | 39.8%
CN1CCN(c2c(F)cc3c(=O)c(C(=O)[O-])cn(CCF)c3c2F)CC1.CN1CCN(c2c(F)cc3c(=O)c(C(=O)[O-])cn(CCF)c3c2F)CC1.[Co+2].c1ccc(Nc2ccccn2)nc1 [complex 16, [Co(flrx)2(bipyam)]] | 8 µg/mL | 8.3 µM | 8 µg/mL | 8.3 µM | 16 µg/mL | 16.5 µM | 1.44(±0.04) × 10^5 M^−1 | 1.98(±0.05) × 10^13 M^−1s^−1 | 22.2% | 9.61(±0.36) × 10^4 M^−1 | 9.35(±0.22) × 10^12 M^−1s^−1 | 36.1%
CN1CCN(c2c(F)cc3c(=O)c(C(=O)[O-])cn(CCF)c3c2F)CC1.[Cl-].[Cu+2].c1ccc(Nc2ccccn2)nc1 [complex 7, [Cu(flrx)(bipyam)Cl]] | > 16 µg/mL | > 25.0 µM | > 16 µg/mL | > 25.0 µM | > 32 µg/mL | > 50.0 µM | 1.26(±0.05)×10^5 M^−1 | 1.56(±0.04) × 10^13 M^−1s^−1 | 26.6% | 1.31(±0.05) × 10^5 M^−1 | 5.57(±0.18) × 10^12 M^−1s^−1 | 49.3%
CN1CCN(c2c(F)cc3c(=O)c(C(=O)[O-])cn(CCF)c3c2F)CC1.CN1CCN(c2c(F)cc3c(=O)c(C(=O)[O-])cn(CCF)c3c2F)CC1.[Cu+2] [complex 1, [Cu(flrx)2]] | 8 µg/mL | 10.0 µM | 8 µg/mL | 10.0 µM | 8 µg/mL | 10.0 µM | 7.19(±0.21) × 10^4 M^−1 | 1.87(±0.09) × 10^13 M^−1s^−1 | 17.3% | 8.39(±0.27) × 10^4 M^−1 | 1.09(±0.08) × 10^13 M^−1s^−1 | 33.3%
CN1CCN(c2c(F)cc3c(=O)c(C(=O)[O-])cn(CCF)c3c2F)CC1.CN1CCN(c2c(F)cc3c(=O)c(C(=O)[O-])cn(CCF)c3c2F)CC1.[Mn+2].c1ccc(Nc2ccccn2)nc1 [complex 10, [Mn(flrx)2(bipyam)]] | 16 µg/mL | 16.6 µM | 16 µg/mL | 16.6 µM | > 32 µg/mL | > 33.2 µM | 6.46(±0.39) × 10^4 M^−1 | 1.20(±0.04) × 10^13 M^−1s^−1 | 31.6% | 8.40(±0.58) × 10^4 M^−1 | 8.01(±0.23) × 10^12 M^−1s^−1 | 47.4%
CN1CCN(c2c(F)cc3c(=O)c(C(=O)[O-])cn(CCF)c3c2F)CC1.CN1CCN(c2c(F)cc3c(=O)c(C(=O)[O-])cn(CCF)c3c2F)CC1.[Ni+2].c1ccc(Nc2ccccn2)nc1 [complex 18, [Ni(flrx)2(bipyam)]] | 8 µg/mL | 8.3 µM | 8 µg/mL | 8.3 µM | 32 µg/mL | 33.0 µM | 4.77(±0.15) × 10^4 M^−1 | 1.56(±0.07) × 10^13 M^−1s^−1 | 25.2% | 7.13(±0.17) × 10^4 M^−1 | 6.94(±0.10) × 10^12 M^−1s^−1 | 44.5%
